For orientation: EC50 means the concentration at which the effect is half-maximal. In general, AC50 refers to the concentration giving half of the maximal activity seen. In general, IC50 refers to the concentration that gives 50% inhibition.

In assay [1] the target is T1, Short transient receptor potential channel 4 (Mus musculus, UniProt Q9QUQ5).
T1 sequence (Q9QUQ5 whole entry): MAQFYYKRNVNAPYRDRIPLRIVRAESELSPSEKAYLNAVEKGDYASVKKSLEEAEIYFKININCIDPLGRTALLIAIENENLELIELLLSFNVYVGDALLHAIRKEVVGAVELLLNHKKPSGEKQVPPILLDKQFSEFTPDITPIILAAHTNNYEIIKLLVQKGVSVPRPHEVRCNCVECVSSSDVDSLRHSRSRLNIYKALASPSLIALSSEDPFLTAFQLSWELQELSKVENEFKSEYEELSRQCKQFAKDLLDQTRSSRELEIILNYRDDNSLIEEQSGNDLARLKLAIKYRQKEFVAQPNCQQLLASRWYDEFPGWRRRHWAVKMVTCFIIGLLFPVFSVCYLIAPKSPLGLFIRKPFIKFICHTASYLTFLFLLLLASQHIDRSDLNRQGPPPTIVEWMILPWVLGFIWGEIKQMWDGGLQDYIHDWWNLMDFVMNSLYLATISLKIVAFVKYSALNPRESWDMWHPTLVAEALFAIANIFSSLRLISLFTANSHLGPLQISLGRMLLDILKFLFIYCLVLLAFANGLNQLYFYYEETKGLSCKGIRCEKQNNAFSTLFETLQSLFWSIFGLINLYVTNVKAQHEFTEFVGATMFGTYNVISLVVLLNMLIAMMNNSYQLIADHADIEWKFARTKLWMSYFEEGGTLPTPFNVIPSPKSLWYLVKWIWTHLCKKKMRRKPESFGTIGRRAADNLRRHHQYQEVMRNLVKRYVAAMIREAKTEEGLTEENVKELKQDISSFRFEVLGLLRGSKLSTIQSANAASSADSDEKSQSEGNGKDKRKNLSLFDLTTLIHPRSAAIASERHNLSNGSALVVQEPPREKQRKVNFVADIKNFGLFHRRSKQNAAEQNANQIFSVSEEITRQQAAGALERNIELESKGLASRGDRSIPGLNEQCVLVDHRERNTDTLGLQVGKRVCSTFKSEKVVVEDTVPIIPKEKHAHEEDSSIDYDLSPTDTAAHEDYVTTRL
The experiment in a line: mouse TRPC4 channel inhibitors, dose response, cell-based, HEK293 TRPC4/mu-opioid, Fluo-4 calcium (AID 434942).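 Note: potency of inhibitors blocking the TRPC4 calcium response.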 Type of assay: functional.

Assay [2] can be described thus: Luminescence Cell-Based Dose Response HTS to Identify Inhibitors of 5'UTR Stem-Loop Driven Prion Protein mRNA Translation in H4 Neuroglioblastoma Cells. [Related pubchem assays: 1827 (Project Summary), 1813 (Primary HTS)]. It is filed as functional.
The target in assay [3] is Heat shock protein HSP 90-alpha (Homo sapiens, UniProt P07900). It is filed as functional, organism-based.
Assay [4] has as its target Nonstructural protein 1 (Influenza A virus, UniProt Q194T2). Type of assay: functional, Influenza A virus (A/California/07/2009(H1N1)).
Assay [5] is described as follows: cytotoxicity in KRAS-transformed pancreatic duct cells, primary screen, cell-based, fluorescence, HTS (AID 431).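 Note: cell line used: HPDE-C7K.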 It is filed as functional. The settings on record: Homo sapiens.
A short description of assay [6]: cytotoxicity toward NIH3T3 fibroblasts, dose response, counter-screen, cell-based, ATP luminescence, mouse fibroblasts (AID 2010).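 Note: cells exposed to compound for about 90 hours before reading.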 Type of assay: functional. Background: A counterscreen serves to expose hits that act by an unwanted route or on another target.
Assay [7] in a line: growth suppression of beta-catenin-knockout colon cells, dose response, cell-based, HCT116, human colon tumor (AID 1045).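 Note: HCT116 colon tumor cells with beta catenin knocked out; cells exposed to compound for 60 hours.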 It is filed as functional.
The target in assay [8] is Cytochrome P450 2C19 (Homo sapiens, UniProt P33261). The assay is described as follows: Cytochrome panel assay with activity outcomes. Panel member name: p450-cyp2c19 Compounds with AC50 equal or less than 10 uM are considered active. Type of assay: functional. The settings on record: read-out: AC50.
Assay [9] in a line: inhibitors of firefly luciferase expression or activity, dose response, H4 neuroglioma cells, luminescence (AID 1990). Type of assay: functional, cell-based.
Assay [10] can be described thus: inhibitors of SNCA 5'UTR-driven reporter translation, confirmation, H4 neuroglioma cells, luminescence (AID 1988). Type of assay: functional, cell-based.
A short description of assay [11]: inhibitors of intracellular T. cruzi replication, confirmation, NIH3T3 host cells, beta-gal luminescence (AID 2044).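 Note: intracellular parasites grown in NIH/3T3 mouse fibroblasts as host cells; luminescent beta-galactosidase reporter signal from transgenic T. cruzi replicating inside host cells; inhibitors lower the luminescence signal.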 It is filed as functional, cell-based.
Assay [12] deals with Streptococcus. The assay is described as follows: Group A Streptococcus viability loss, dose response, counter-screen for streptokinase expression inhibitor project, luminescence, BacTiterGlo (AID 1915).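 Note: potency for reduction of bacterial viability or growth.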 Type of assay: functional, organism-based.
The nature of assay [13]: cytotoxicity in HPDE-C7 cells, cell-based, fluorescence, HTS (AID 430). Type of assay: functional. The settings on record: Homo sapiens.
Assay [14] is described as follows: growth suppression of PTEN-null colon cells, dose response, cell-based, HCT116 PTEN knockout (AID 1047).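 Note: HCT116 colon tumor cells with PTEN knocked out; cells exposed to compound for 60 hours before readout; potency for loss of cell viability measured by luminescence.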 Type of assay: functional.
The test system of assay [15] is Streptococcus sp. 'group A'. The assay is described as follows: growth inhibition of control SK(-) GAS strain, dose response, counter-screen for streptokinase expression inhibitor project, luminescence, kanamycin, BacTiterGlo, confirmation (AID 1900). It is filed as functional, organism-based.
Assay [16] addresses T2, Mannose-6-phosphate isomerase (Homo sapiens, UniProt P34949).
T2 sequence (P34949 whole entry): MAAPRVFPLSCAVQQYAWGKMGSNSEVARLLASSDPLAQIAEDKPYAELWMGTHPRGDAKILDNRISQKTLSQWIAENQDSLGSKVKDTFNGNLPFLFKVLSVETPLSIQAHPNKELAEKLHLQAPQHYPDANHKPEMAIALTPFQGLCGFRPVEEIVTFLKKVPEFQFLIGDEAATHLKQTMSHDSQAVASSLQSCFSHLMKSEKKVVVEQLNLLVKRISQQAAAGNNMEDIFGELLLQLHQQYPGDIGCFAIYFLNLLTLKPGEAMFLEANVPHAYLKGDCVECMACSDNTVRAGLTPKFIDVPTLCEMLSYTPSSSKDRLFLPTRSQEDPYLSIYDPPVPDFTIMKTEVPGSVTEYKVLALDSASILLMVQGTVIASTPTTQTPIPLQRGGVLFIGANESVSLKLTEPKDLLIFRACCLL
The experiment in a line: human PMI inhibitors, high substrate, primary screen, biochemical, fluorescence intensity, high mannose 6-phosphate (AID 1220).

Assay [17] deals with Induced myeloid leukemia cell differentiation protein Mcl-1 (Homo sapiens, UniProt Q07820). The experiment in a line: MCL1-BIM BH3 interaction inhibitors, dose response, biochemical, fluorescence polarization, BIM-BH3 peptide, 1536-well (AID 2217). For orientation: Polarisation of emitted light reports the rotation of a fluorescent probe.
Assay [18] concerns the target Bcl-2-like protein 1 (Homo sapiens, UniProt Q07817). The experiment in a line: BCL-XL inhibitors, dose response, selectivity assay for MCL1 inhibitor project, biochemical, fluorescence polarization, 1536-well (AID 2218).
Assay [19] addresses Large T antigen (Simian virus 40, UniProt P03070). Type of assay: functional, Betapolyomavirus macacae.
Assay [20] addresses T3, Protein Tat (Human immunodeficiency virus type 1 group M subtype B (isolate HXB2)(HIV-1), UniProt P04608).
T3 sequence (P04608 whole entry): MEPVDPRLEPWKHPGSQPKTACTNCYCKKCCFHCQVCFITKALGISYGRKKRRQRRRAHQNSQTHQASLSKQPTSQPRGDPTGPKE
Type of assay: functional.

Calls of active or inactive are those of the source.

Sequence of Induced myeloid leukemia cell differentiation protein Mcl-1 (Q07820 whole entry): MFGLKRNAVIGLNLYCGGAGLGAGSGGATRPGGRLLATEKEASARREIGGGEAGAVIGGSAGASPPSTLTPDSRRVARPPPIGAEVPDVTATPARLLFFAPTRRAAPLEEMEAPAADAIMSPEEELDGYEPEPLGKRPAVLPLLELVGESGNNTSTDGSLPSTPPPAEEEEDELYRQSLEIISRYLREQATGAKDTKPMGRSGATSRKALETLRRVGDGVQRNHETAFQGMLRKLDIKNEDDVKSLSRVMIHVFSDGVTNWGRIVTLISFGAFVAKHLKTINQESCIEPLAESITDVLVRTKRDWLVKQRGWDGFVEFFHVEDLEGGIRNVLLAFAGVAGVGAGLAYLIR
Sequence of Bcl-2-like protein 1 (Q07817 whole entry): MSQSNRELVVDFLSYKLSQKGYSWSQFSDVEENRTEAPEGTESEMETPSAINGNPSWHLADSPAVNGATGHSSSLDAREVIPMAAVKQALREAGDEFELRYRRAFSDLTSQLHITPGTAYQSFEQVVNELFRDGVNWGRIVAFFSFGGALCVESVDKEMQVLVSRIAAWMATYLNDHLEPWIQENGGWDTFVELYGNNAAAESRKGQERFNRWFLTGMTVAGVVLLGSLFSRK
Sequence of Cytochrome P450 2C19 (P33261 whole entry): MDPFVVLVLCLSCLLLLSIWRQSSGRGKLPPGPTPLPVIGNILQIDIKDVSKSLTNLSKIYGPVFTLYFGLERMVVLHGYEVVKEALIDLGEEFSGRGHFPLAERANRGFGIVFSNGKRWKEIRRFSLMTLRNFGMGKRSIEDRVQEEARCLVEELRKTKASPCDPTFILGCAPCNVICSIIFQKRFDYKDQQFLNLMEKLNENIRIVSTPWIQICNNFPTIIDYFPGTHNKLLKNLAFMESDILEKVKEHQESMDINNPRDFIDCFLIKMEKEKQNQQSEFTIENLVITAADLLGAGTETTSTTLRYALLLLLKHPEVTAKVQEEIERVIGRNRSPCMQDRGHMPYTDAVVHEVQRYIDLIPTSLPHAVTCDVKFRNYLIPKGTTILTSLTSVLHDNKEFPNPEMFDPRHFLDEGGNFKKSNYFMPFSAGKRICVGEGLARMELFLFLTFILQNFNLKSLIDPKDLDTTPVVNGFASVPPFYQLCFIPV
Sequence of Large T antigen (P03070 whole entry): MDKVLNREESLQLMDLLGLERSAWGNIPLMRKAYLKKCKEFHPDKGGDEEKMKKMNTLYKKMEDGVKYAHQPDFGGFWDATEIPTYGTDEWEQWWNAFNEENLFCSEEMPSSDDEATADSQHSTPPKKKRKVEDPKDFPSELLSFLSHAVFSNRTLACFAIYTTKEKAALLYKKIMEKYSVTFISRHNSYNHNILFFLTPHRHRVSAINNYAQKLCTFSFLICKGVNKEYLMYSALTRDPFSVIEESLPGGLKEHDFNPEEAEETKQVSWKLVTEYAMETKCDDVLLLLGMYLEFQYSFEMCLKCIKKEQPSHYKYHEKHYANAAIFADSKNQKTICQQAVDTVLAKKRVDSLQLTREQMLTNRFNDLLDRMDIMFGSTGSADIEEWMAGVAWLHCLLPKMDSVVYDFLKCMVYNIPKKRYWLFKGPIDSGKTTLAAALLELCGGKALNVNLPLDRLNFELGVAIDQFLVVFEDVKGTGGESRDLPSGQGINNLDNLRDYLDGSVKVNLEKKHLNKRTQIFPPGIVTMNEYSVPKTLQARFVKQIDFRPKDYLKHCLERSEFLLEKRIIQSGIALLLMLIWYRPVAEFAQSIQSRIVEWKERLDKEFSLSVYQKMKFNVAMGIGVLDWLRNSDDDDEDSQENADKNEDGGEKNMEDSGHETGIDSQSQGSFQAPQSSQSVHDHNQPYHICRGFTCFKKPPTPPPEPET
Sequence of Nonstructural protein 1 (Q194T2 whole entry): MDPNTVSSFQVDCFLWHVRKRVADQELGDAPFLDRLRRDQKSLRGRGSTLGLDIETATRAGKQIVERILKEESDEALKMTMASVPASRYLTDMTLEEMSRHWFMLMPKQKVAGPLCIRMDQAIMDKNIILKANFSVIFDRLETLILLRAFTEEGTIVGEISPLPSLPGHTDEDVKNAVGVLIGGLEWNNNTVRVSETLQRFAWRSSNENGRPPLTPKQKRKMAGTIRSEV

For `Oc1c(CN2CCCCC2)cc(Br)c2cccnc12`, the EC50 is 4.22 µM (active) in assay [1]; 1.63 µM (active) in assay [2]; 10.4 µM (active) in [5]; 6.38 µM (active) in assay [6]; 1.64 µM (active) in assay [7]; 5.98 µM (active) in [9]. For the same molecule, the EC50 in assay [10] was 4.28 µM (active); in assay [11], 1.16 µM (active); in assay [12], 10.7 µM (active); in assay [13] it was 7.75 µM (active); in [14] it was 1.95 µM (active); in assay [15], 3.42 µM (active). For the same molecule, the AC50 in assay [3] is 6.04 µM (active); in [8] it was 39.8 µM (inconclusive). Also, the figures for the IC50 in [4] and in assay [16] were 3.55 µM (active) and 15 µM (active), respectively.

Take `O=C1NC(=O)N(c2cccc(Cl)c2)C(=O)/C1=C\c1ccc(Sc2nc3ccccc3[nH]2)o1`: the IC50 is 8.64 µM (active) in [17], > 12.1 µM (not active) in assay [18], 66.2 µM (active) in [19] and > 100 µM (active) in assay [20].

With `Cc1ccccc1OCC(=O)OCC(=O)Nc1ncc(Cl)c(C)c1Cl`, the IC50 in assay [17] is on record as 15.7 µM (not active); in assay [18], 30.4 µM (not active).

For the origin of these results see ChEMBL document CHEMBL1201862, “PubChem BioAssay data set” (2004).
